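Exposure lasted 48 hours, with cells grown in 96-well plates and compounds tested at five concentrations. At the TGI there is no net growth.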
Legend:
Assay in all cases: DTP human tumour cell line panel, 48 h
786-0 renal = system: 786-0 renal
A549 NSCLC = system: A549 NSCLC
ACHN renal = system: ACHN renal
CAKI-1 renal = system: CAKI-1 renal
CCRF-CEM leukemia = system: CCRF-CEM leukemia
COLO 205 colon = system: COLO 205 colon
DLD-1 colon = system: DLD-1 colon
DMS 114 small cell lung = system: DMS 114 small cell lung
DMS 273 small cell lung = system: DMS 273 small cell lung
EKVX NSCLC = system: EKVX NSCLC
HCC-2998 colon = system: HCC-2998 colon
HCT-15 colon = system: HCT-15 colon
HL-60(TB) leukemia = system: HL-60(TB) leukemia
HOP-62 NSCLC = system: HOP-62 NSCLC
IGROV1 ovarian = system: IGROV1 ovarian
K-562 leukemia = system: K-562 leukemia
KM20L2 colon = system: KM20L2 colon
LOX IMVI melanoma = system: LOX IMVI melanoma
LXFL 529 NSCLC = system: LXFL 529 NSCLC
M14 melanoma = system: M14 melanoma
M19-MEL melanoma = system: M19-MEL melanoma
MALME-3M melanoma = system: MALME-3M melanoma
MOLT-4 leukemia = system: MOLT-4 leukemia
OVCAR-4 ovarian = system: OVCAR-4 ovarian
OVCAR-5 ovarian = system: OVCAR-5 ovarian
OVCAR-8 ovarian = system: OVCAR-8 ovarian
RPMI-8226 leukemia = system: RPMI-8226 leukemia
SK-MEL-2 melanoma = system: SK-MEL-2 melanoma
SK-MEL-5 melanoma = system: SK-MEL-5 melanoma
SK-OV-3 ovarian = system: SK-OV-3 ovarian
SN12C renal = system: SN12C renal
SR leukemia = system: SR leukemia
SW-620 colon = system: SW-620 colon
TK-10 renal = system: TK-10 renal
U251 CNS = system: U251 CNS
UACC-62 melanoma = system: UACC-62 melanoma
XF 498 CNS = system: XF 498 CNS
HCT-116 colon = system: HCT-116 colon
HOP-92 NSCLC = system: HOP-92 NSCLC
HT29 colon = system: HT29 colon
KM12 colon = system: KM12 colon
NCI-H226 lung = system: NCI-H226 lung
NCI-H23 lung = system: NCI-H23 lung
NCI-H460 lung = system: NCI-H460 lung
NCI-H522 lung = system: NCI-H522 lung
OVCAR-3 ovarian = system: OVCAR-3 ovarian
SF-268 CNS = system: SF-268 CNS
SF-295 CNS = system: SF-295 CNS
SF-539 CNS = system: SF-539 CNS
SK-MEL-28 melanoma = system: SK-MEL-28 melanoma
SNB-19 CNS = system: SNB-19 CNS
SNB-75 CNS = system: SNB-75 CNS
UACC-257 melanoma = system: UACC-257 melanoma
UO-31 renal = system: UO-31 renal
HOP-18 NSCLC = system: HOP-18 NSCLC
RXF 393 renal = system: RXF 393 renal
SNB-78 CNS = system: SNB-78 CNS
A498 renal = system: A498 renal

Measured: TGI

CC#Cc1c(O)c2c(c(O)c1C#CC)C(=O)c1ccccc1C2=O
42.7 µM: LXFL 529 NSCLC
not listed: HCT-116 colon | HOP-92 NSCLC | HT29 colon | KM12 colon | NCI-H226 lung | NCI-H23 lung | NCI-H460 lung | NCI-H522 lung | OVCAR-3 ovarian | SF-268 CNS | SF-295 CNS | SF-539 CNS | SK-MEL-28 melanoma | SNB-19 CNS | SNB-75 CNS | UACC-257 melanoma | UO-31 renal | HOP-18 NSCLC | RXF 393 renal | SNB-78 CNS | A498 renal
> 100 µM: all other assays above

Cc1ccc(NCC2(/N=C/c3ccccc3)OC(CO)C(O)C2O)cc1 (centres undefined)
99.2 µM: CCRF-CEM leukemia
64.7 µM: HL-60(TB) leukemia
49.4 µM: KM20L2 colon
83.7 µM: U251 CNS
not listed: EKVX NSCLC | LOX IMVI melanoma | M19-MEL melanoma | SK-OV-3 ovarian | SN12C renal | HOP-18 NSCLC | RXF 393 renal | SNB-78 CNS | A498 renal
> 100 µM: all other assays above

C=C(/C=C/C=C(\C)CCC=C(C)C)[C@@H]1CC[C@]2([C@H](CCCO)/C(=C(/C)C=O)CC[C@]2(C)O)[C@@H]1O
60.4 µM: HOP-18 NSCLC
56.2 µM: NCI-H226 lung
32.8 µM: XF 498 CNS
31.4 µM: SN12C renal
26.5 µM: NCI-H460 lung
29.3 µM: MOLT-4 leukemia
34.2 µM: HCT-15 colon
25.1 µM: SF-539 CNS
28.5 µM: U251 CNS
48.8 µM: CCRF-CEM leukemia
81.1 µM: IGROV1 ovarian
26 µM: COLO 205 colon
15.4 µM: KM12 colon
37.8 µM: RXF 393 renal
46.5 µM: OVCAR-8 ovarian
41.8 µM: SF-268 CNS
40.9 µM: SR leukemia
99.4 µM: SNB-75 CNS
45.7 µM: NCI-H23 lung
28.4 µM: SK-MEL-28 melanoma
52.7 µM: SNB-19 CNS
40.7 µM: SW-620 colon
48 µM: UO-31 renal
29.8 µM: MALME-3M melanoma
38.7 µM: DLD-1 colon
38.2 µM: A549 NSCLC
31.9 µM: LOX IMVI melanoma
44 µM: SF-295 CNS
48.2 µM: M14 melanoma
35.4 µM: HL-60(TB) leukemia
27.9 µM: DMS 273 small cell lung
30.9 µM: HT29 colon | K-562 leukemia
33.5 µM: SNB-78 CNS
60.9 µM: CAKI-1 renal
33.7 µM: LXFL 529 NSCLC
66.2 µM: TK-10 renal
33 µM: NCI-H522 lung
59.5 µM: UACC-257 melanoma
38.5 µM: SK-MEL-2 melanoma
> 100 µM: ACHN renal | KM20L2 colon | OVCAR-5 ovarian | SK-OV-3 ovarian
53.1 µM: SK-MEL-5 melanoma
35.6 µM: HCC-2998 colon
44.1 µM: EKVX NSCLC

O=C1CCCCCCC2=C1C(Sc1ccccc1)CC2 (centres undefined)
94.8 µM: SK-MEL-28 melanoma
90.7 µM: SNB-75 CNS
83.8 µM: HT29 colon
36.2 µM: HL-60(TB) leukemia
76.4 µM: DMS 114 small cell lung
48.6 µM: RXF 393 renal
92.1 µM: UO-31 renal
61.7 µM: DMS 273 small cell lung
33 µM: 786-0 renal
41.4 µM: NCI-H522 lung
30.7 µM: LOX IMVI melanoma
42.3 µM: SN12C renal
85.2 µM: EKVX NSCLC
95.5 µM: RPMI-8226 leukemia
79.3 µM: SR leukemia
67.8 µM: CCRF-CEM leukemia | HCT-116 colon
44 µM: SF-268 CNS
54 µM: OVCAR-8 ovarian
not listed: CAKI-1 renal | DLD-1 colon | HCC-2998 colon | IGROV1 ovarian | OVCAR-5 ovarian | SK-MEL-2 melanoma | XF 498 CNS | HOP-92 NSCLC | OVCAR-3 ovarian | SF-539 CNS | A498 renal
> 100 µM: all other assays above

CCCn1cc2c(=O)[nH]c(SC)nc2n1
89.1 µM: NCI-H226 lung
98.1 µM: XF 498 CNS
not listed: 786-0 renal | HOP-62 NSCLC | K-562 leukemia | KM20L2 colon | M19-MEL melanoma | SK-OV-3 ovarian | UACC-62 melanoma | NCI-H522 lung | OVCAR-3 ovarian
> 100 µM: all other assays above
